Reference: ChEMBL document CHEMBL1129528, “Synthesis and biological evaluation of N-acetylneuraminic acid-based rotavirus inhibitors” (J Med Chem, 1996)
pIC50: −log10 of the molar value.

Tests used:
Assay type in all cases: functional, organism-based
Rotavirus [1] = experiment: Inhibitory activity against Wa(human) rotavirus strain.
Rotavirus [2] = experiment: Inhibitory activity against NCDV(bovine) rotavirus strain.
Rotavirus [3] = experiment: Inhibitory activity against UK(bovine) rotavirus strain.
Rotavirus [4] = experiment: Inhibitory activity against SA11 (simian) rotavirus strain.

SMILES | pIC50 (Rotavirus [1]) | pIC50 (Rotavirus [2]; Rotavirus) | pIC50 (Rotavirus [3]) | pIC50 (Rotavirus [4]; Rotavirus) | pIC50 (Rotavirus [2]) | pIC50 (Rotavirus [4])
COC1OC(CO)C(SC2(C(=O)O)CC(O)C(NC(C)=O)C([C@H](O)[C@H](O)CO)O2)C(O)C1O (some centres undefined) | < 1.60 | 2.20 | < 1.60 | 1.60 |  | 
CC(=O)NC1C(O)CC(SC[C@@H](O)C2OC3OC(C)(C)OC3C2O)(C(=O)O)OC1[C@H](O)[C@H](O)CO (some centres undefined) | < 1.60 | 2.20 | 1.60 | 2.20 |  | 
COC1OC(CSC2(C(=O)O)CC(O)C(NC(C)=O)C([C@H](O)[C@H](O)COC(C)=O)O2)C(O)C(O)C1O (some centres undefined) | < 1.60 | 2.82 | 1.60 | < 1.60 |  | 
COC1OC(CSC2(C(=O)O)CC(O)C(NC(C)=O)C([C@H](O)[C@H](O)COC(C)=O)O2)C(OC(C)=O)C(O)C1O (some centres undefined) | < 1.60 | 2.82 | 1.90 | 1.60 |  | 
CO[C@H]1O[C@H](CSC2(C(=O)O)CC(O)C(NC(C)=O)C(C(O)[C@H](O)CO)O2)[C@@H](O)[C@@H]1O (single isomer, unassigned) | < 1.60 | 2.20 | < 1.60 | < 1.60 |  | 
COC1OC(CSC2(C(=O)O)CC(O)C(NC(C)=O)C([C@H](O)[C@H](O)CO)O2)C(O)C(O)C1O (stereo in doubt; 14) |  |  |  |  | 2.20 | 1.60

The next lines start with the values.

pIC50 (Rotavirus [1]) | pIC50 (Rotavirus [2]; Rotavirus) | pIC50 (Rotavirus [3]) | pIC50 (Rotavirus [4]; Rotavirus) | pIC50 (Rotavirus [2]) | pIC50 (Rotavirus [4]) | SMILES
< 1.60 | 3.46 | 1.90 | < 1.60 |  |  | COC1OC(CSC2(C(=O)O)CC(O)C(NC(C)=O)C([C@H](O)[C@H](O)COC(C)=O)O2)C(O)C(O)C1NC(C)=O (some centres undefined)
< 1.60 | 2.20 | < 1.60 | 1.60 |  |  | COC1OC(CSC2(C(=O)O)CC(O)C(NC(C)=O)C([C@H](O)[C@H](O)CO)O2)C(O)C(O)C1NC(C)=O (some centres undefined)
< 1.60 | 2.20 | < 1.60 | 1.90 |  |  | COC1OC(CSC2(C(=O)O)CC(O)C(NC(C)=O)C([C@H](O)[C@H](O)CO)O2)C(O)C(O)C1O (stereo in doubt; 16)
